In this data set the test system is cirrhotic patients with tense ascites. The settings on record: human, in vivo.

Structures are written as SMILES. Positions of bridges follow the written chain, without caps; N, C: chain ends. Residues, ends and D or L forms follow the SMILES beside them.

Procedure: Patient selection criteria: 24 clinically stable cirrhotic patients with tense ascites in need of therapeutic paracentesis were recruited to the study.
Treatment: Both groups received therapeutic paracentesis according to the usual protocol of the study centre. […] Plasma renin and aldosterone levels were measured as markers of blood volume. Certain other parameters were determined as secondary criteria for successful treatment.

The compound `NCCCC[C@H](NC(=O)[C@@H]1CCCN1C(=O)[C@@H]1CSSC[C@H](NC(=O)CNC(=O)CNC(=O)CN)C(=O)N[C@@H](Cc2ccc(O)cc2)C(=O)N[C@@H](Cc2ccccc2)C(=O)N[C@@H](CCC(N)=O)C(=O)N[C@@H](CC(N)=O)C(=O)N1)C(=O)NCC(N)=O` [Terlipressin] (H-GGGCYFQNCPKG-NH2; disulfide 4-9) gave a Creatininaemia of 72 ± 8 and a Natraemia of 133 ± 1 mmol/L.

(Values after patent publication US20040102362A1, “Protocol for paracentesis” (priority 2000, published 2004).)
